According to patent US10106778B2, “Selective targeting of cancer stem cells” (Whitehead Institute for Biomedical Research, priority 2012, dated 2018):

What was measured:
p-PLCγ1^Y783 = test: Western blot of PLCγ1 phosphorylation in NAMECs; assay type: cell-based, human; conditions: 5 μM, within 30 min
Protocol: (§1) To obtain protein extracts, cells were scraped from culture dishes in chilled PBS, centrifuged at 450×g for 4 min at 4° C., washed again in PBS, and incubated for 20 min in ice cold lysis buffer containing freshly added protease inhibitors (0.5 mM phenylmethylsulfonyl fluoride, 10 μg/ml leupeptin, 2 μg/ml aprotonin). Lysates were cleared by centrifugation at 12,100×g, 4° C. for 10 min and the supernatant was snap frozen in liquid nitrogen. Protein concentrations were determined using Bradford Dye (Bio-Rad). 30 μg total protein was separated by SDS-PAGE on NuPAge gels (Invitrogen), and transferred to Hybond-P PVDF membrane (GE Healthcare). The membrane was probed with specific primary antibodies and antibody-protein complex detected by HRP-conjugated antibodies and ECL-Plus (Amersham Biosciences).
(§2) Protein levels of both phospholipase Cγ1 and 2 (PLCγ1 and PLCγ2), which transduce signals from PDGFRα/β to PKCα, were also elevated in these cells by an average of 4.57 and 2.38-fold, respectively (FIG. 4E). To test whether PLCγ is being activated by PDGFR through phosphorylation, NAMECs were treated with PDGFR inhibitors.

[1] = system: p-PKCα^S497 and p-PKCα^T638; test: Western blot of PKCα phosphorylation in NAMECs; assay type: cell-based, human
Protocol: as §1
We subsequently sought to determine whether PKCα activation was directly dependent upon PDGFR-PLCγ. Exposure of NAMECs to a PLCγ inhibitor (U73122) reduced active p-PKCα^S497 and p-PKCα^T638 by 1.3 and 3.1-fold respectively within 30 min, and 6.3 and 4.2-fold respectively by 60 min (FIG. 13C); total PKCα level was unchanged (FIG. 13C). The inhibition of PDGFR in NAMECs, similarly, led to a loss of PKCα phosphorylation (p-PKCα^S497: 2.8 fold, p-PKCα^T638: 5.9 fold), as illustrated once again by the loss of active p-PKCα^S497 and p-PKCα^T638 within 30 min, while total PKCα remained constant (FIG. 13D).

[2] = system: p-B-Raf, p-c-Raf, p-MEK1/2 and p-ERK1/2; test: Western blot of MAPK/ERK signaling in NAMECs; assay type: cell-based, human; conditions: 30 min
Protocol: as §1
We assessed whether mesenchymal cells contained higher Ras expression or activated Ras. […] We assessed whether enhanced ERK signaling in the mesenchymal cell state was primarily mediated through the activated PDGFR and PKCα signaling cascade, rather than through activation via a Ras-Raf pathway. To test this, we exposed NAMECs to PKCα-specific inhibitors for 30 min. This reduced p-B-Raf and p-c-Raf expression, and led to the loss of p-MEK1/2 and p-ERK1/2 (FIG. 5F). […] Therefore, the enhanced activity of ERK signaling during EMT was, in part, conferred by signaling through PDGFR and PKCα.

p-PLCγ2^Y1217 = test: Western blot of PLCγ2 phosphorylation in NAMECs; assay type: cell-based, human; conditions: 5 μM, within 30 min
Protocol: as §1, §2

p-FRA1^S265 = test: Western blot of FRA1 phosphorylation in NAMECs; assay type: cell-based, human; conditions: for effect on phosphorylation of FRA1: applied to NAMECs for 30 min
Protocol: as §1
FRA1 is a member of the Fos family of transcription factors, which is also comprised of c-Fos, FosB and Fra2. Together with the Jun family of transcription factors composed of c-Jun, JunB and JunD, individual members of the Fos and Jun family associate with one another to form heterodimeric activator protein-1 (AP-1) complexes that bind and transcriptionally regulate target gene expression when phosphorylated (Eferl and Wagner, 2003).
We assessed whether the observed increased p-FRA1 activity in the mesenchymal cells could be further augmented by elevated ERK signaling during EMT. Accordingly, inhibition of ERK1/2 phosphorylation with a MEK inhibitor was able to decrease p-FRA1^S265 levels by 65% but not the levels of total FRA1 or p-c-Jun (FIG. 5G), confirming that ERK1/2 signaling promoted p-FRA1 activity.

[3] = system: NAMEC-Tom-Ras and HMLE-GFP-Ras cells; test: Co-mixed NAMEC-Tom-Ras (CSC-enriched) and HMLE-GFP-Ras (CSC-depleted) cells, kinase inhibition, FACS; assay type: cell-based, human; conditions: dose response, co-mixed cells
Protocol: (§3) Kinase inhibitors and other chemical compounds were obtained from various sources listed below. These were dissolved or diluted in DMSO. To set up the screen, 75,000 NAMEC-Tom and 15,000 HMLE-GFP cells were seeded into each well of a 6-well tissue culture plate. The following day, spent media was replaced with 3 ml of fresh media. Inhibitors were added to achieve the desired range of concentrations. For control treatment, DMSO was added. Fresh media containing inhibitors were replaced daily during the six day period. For analysis, cells were trypsinized with 1 ml 0.15% trypsin, diluted with 1 ml serum-containing media and fixed with 1 ml of 4% paraformaldehyde. FACS analysis was performed to analyze the proportion of surviving cells relative to DMSO-treated control for NAMEC-Tom or HMLE-GFP cells. To test the effects of these inhibitors on CSCs and non-CSCs, NAMEC-Ras-Tom and […] were used in similar co-mixed experiments.
as §3, with “experiments. To assess the fraction of cells undergoing apoptosis, cells were exposure to agents for three days without fresh media and then analyzed with Annexin V-APC (BD Biosciences).” for “experiments.”
Having determined that NAMEC-Ras cells were enriched for CSCs, we mixed NAMEC-Ras cells labeled with tdTomato (NAMEC-Tom-Ras) and HMLE-Ras cells labeled with GFP (HMLE-GFP-Ras) and re-tested the effects of kinase inhibition as described above. […] In addition, these NAMEC-Tom-Ras cells were more resistant to paclitaxel (11.3 fold) and staurosporine (32.8 fold) than the corresponding HMLE-GFP-Ras cells used as controls (FIG. 3C).

NAMEC-Tom cells = test: Annexin V apoptosis in co-mixed culture, NAMEC-Tom gate; assay type: cell-based, human; conditions: co-mixed cells treated for three days
Protocol: as §3, with “experiments. To assess the fraction of cells undergoing apoptosis, cells were exposure to agents for three days without fresh media and then analyzed with Annexin V-APC (BD Biosciences).” for “experiments.”
(§4) To assess how PKC inhibitors function in these cell populations, we tested whether they induced apoptosis. Thus, the mixed cell populations described above were treated with one of the inhibitors (Ro-31-8220) for three days and assessed with Annexin V, which marks apoptotic cells. 89% of NAMEC-Tom cells underwent apoptosis in comparison to 22.4% of the HMLE-GFP cells (FIG. 2E).

NAMECs = test: Cellular plasticity of NAMECs: differentiation by PGE2 blockade and inhibitor sensitivity; assay type: cell-based, human
Source text: NAMECs are phenotypically plastic and can transit between the epithelial and mesenchymal cell state. The cells relied on autocrinal PGE2 signaling for maintenance of the mesenchymal state.

NAMEC-Ras cells = test: NAMEC-Ras subcutaneous xenograft, treatment from day of implantation; assay type: in vivo
Protocol: All research involving animals complied with protocols approved by the MIT Committee on Animal Care. For subcutaneous injections, cells resuspended in 100111 PBS containing 50% Matrigel were injected into both flanks female NOD-SCID mice except for studies involving the in vivo administration of chemical inhibitors where only one flank was implanted. The tumor incidence and weight were measured between 4 and 12 weeks post-injection.
In order to assess the therapeutic benefits of PKCα and SPHK1/2 inhibitors, NOD-SCID mice were xenografted with 5×10^4 NAMEC-Ras cells and treated for 30 days with a daily intraperitoneal dose of either DMSO control, PKCα Inh (5 mg/kg/d), SPHK1/2 Inh (5 mg/kg/d) or PKCα+SPHK1/2 inhibitors (2.5 mg/kg/d of each).

HMLE-GFP cells = test: Annexin V apoptosis in co-mixed culture, HMLE-GFP gate; assay type: cell-based, human; conditions: co-mixed cells treated for three days
Protocol: as §3, with “experiments. To assess the fraction of cells undergoing apoptosis, cells were exposure to agents for three days without fresh media and then analyzed with Annexin V-APC (BD Biosciences).” for “experiments.”
as §4

[4] = system: NAMEC-Tom and HMLE-GFP cells; test: Kinase inhibitor screen: co-mixed NAMEC-Tom and HMLE-GFP cells, six days of inhibitor, FACS; assay type: cell-based, human; conditions: six days of inhibitor treatment, FACS relative to DMSO
Protocol: as §3
as §3, with “experiments. To assess the fraction of cells undergoing apoptosis, cells were exposure to agents for three days without fresh media and then analyzed with Annexin V-APC (BD Biosciences).” for “experiments.”
We undertook to identify kinase inhibitors that selectively targeted mesenchymal-like cells including those with stem cell properties. To do so, we established a screen that measured the ability of candidate inhibitors to preferentially deplete NAMECs but not parental HMLE cells from cell cultures. Thus, we labeled NAMECs with the tdTomato red fluorescent protein (NAMEC-Tom) and the HMLE cells with the GFP green fluorescent protein (HMLE-GFP); we then attempted to reconstitute certain stem cell and non-stem cell interactions that might operate in vivo by mixing the two cell populations in 6-well adherent tissue culture plates. One day later, we challenged these cultures with a variety of kinase inhibitors (FIG. 2A).
The robustness of this screen, designed to identify mesenchymal cell-specific inhibitors, was enhanced by seeding NAMEC-Tom and HMLE-GFP cells in a 5:1 ratio. While NAMEC-Tom cells, like others that have passed through an EMT, proliferated marginally more slowly than their epithelial counterparts in culture, their initial advantage in seeding density was compensated over the course of the six day-long assays by the more rapid proliferation of the HMLE-GFP cells (FIG. 11). After six days of treatment, the relative proportions of NAMEC-Tom and HMLE-GFP cells were quantified with fluorescent-activated cell sorting (FACS) to determine the selective effects, if any, of these various inhibitors (FIG. 2A).

[5] = 5×10^4 cells, daily intraperitoneal 30 days, 5 mg/kg/d (combination 2.5 mg/kg/d of each), after 15 weeks

| SMILES | effect on p-PLCγ1^Y783 (p-PLCγ1^Y783) | effect on PKCα phosphorylation [1] | effect on phospho-proteins of ERK signaling [2] | effect on p-PLCγ2^Y1217 (p-PLCγ2^Y1217) | effect on phosphorylation of FRA1 (p-FRA1^S265) | which cell type is more sensitive / selected against [3] | apoptosis of NAMEC-Tom cells (Annexin V) (NAMEC-Tom cells) | sensitivity of GW-treated (differentiated) NAMECs (NAMECs; after differentiation with GW627368) | sensitivity of NAMECs relative to parental HMLE cells (NAMECs; undifferentiated NAMECs) | mice that formed tumors (NAMEC-Ras cells; [5]) | tumor weight (NAMEC-Ras cells; [5]) | tolerability in mice (NAMEC-Ras cells; 30 days of treatment followed by eight weeks of observation) | apoptosis of HMLE-GFP cells (Annexin V) (HMLE-GFP cells) | preferential depletion of NAMEC-Tom or HMLE-GFP cells in co-mixed culture [4] | total FRA1 (p-FRA1^S265; within 30 min of treatment) |
| --- | --- | --- | --- | --- | --- | --- | --- | --- | --- | --- | --- | --- | --- | --- | --- |
| COc1cc2ncnc(N3CCN(C(=O)Nc4ccc(Oc5ccccc5)cc4)CC3)c2cc1OC [PDGFR Inh III] | reduced | reduced phosphorylation of PKCα | downregulation of B-Raf and C-Raf phosphorylation, and dampening ERK signaling | reduced | blocked the phosphorylation of FRA1 | NAMEC-Ras-Tom cells were more sensitive |  |  |  |  |  |  |  |  |  |
| COc1cc2c(cc1OC)-c1[nH]nc(Nc3cccc(F)c3)c1C2 [PDGFR Inh IV] |  | reduced phosphorylation of PKCα | downregulation of B-Raf and C-Raf phosphorylation, and dampening ERK signaling |  | blocked the phosphorylation of FRA1 | NAMEC-Ras-Tom cells were more sensitive |  |  |  |  |  |  |  |  |  |
| Cn1cc(C2=C(c3cn(CCCSC(=N)N)c4ccccc34)C(=O)NC2=O)c2ccccc21 [Ro-31-8220] |  |  |  |  | blocked the phosphorylation of FRA1 |  | 89% | lost their sensitivity | more sensitive | four of eight | ~0.16 g | well-tolerated in mice and had no adverse effects | 22.4% | diminished NAMEC-Tom cells relative to HMLE-GFP cells | unchanged |
